{
  "source": "patent US10190093B2",
  "about": "“Artificial oocyte activation” (The Curators of the University of Missouri, priority 2013, dated 2019)",
  "tested_on": "porcine oocytes",
  "test": "TPEN as main oocyte activating reagent after a smaller Ca2+ increase (electroporation in 0.1 mM Ca2+)",
  "assay_type": "cell-based, pig",
  "conditions": "for Day 6 Blastocysts (%) / Day 7 Blastocysts (%): 0.1 mM Ca2+ electroporation",
  "experimental": "Oocytes were obtained from either pre-pubertal gilt ovaries from an abattoir (Farmland Foods Inc., Milan, Mo.), or sow-derived oocytes that were purchased from Applied Reproductive Technology (Madison, Wis.). Immature oocytes from gilt ovaries were aspirated from medium size (3-6 mm) follicles by using an 18 gauge hypodermic needle attached to a 10 mL syringe. Oocytes with evenly dark cytoplasm and intact surrounding cumulus cells were then selected for maturation. Around 50 cumulus oocyte complexes were place in a well containing 500 μL of maturation medium, TCM 199 (Invitrogen, Grand Island, N.Y.) with 3.05 mM glucose, 0.91 mM sodium pyruvate, 0.57 mM cysteine, 10 ng/mL epidermal growth factor (EGF), 0.5 mg/mL luteinizing hormone (LH), 0.5 mg/mL follicle stimulating hormone (FSH), 10 ng/mL gentamicin (APP Pharm, Schaumburg, Ill.), and 0.1% polyvinyl alcohol (PVA) for 42-44 hr at 38.5° C., 5% CO2, in humidified air. […] At the end of the maturation, the surrounding cumulus cells were removed from the oocytes by vortexing for 3 min in the presence of 0.1% hyaluronidase. Oocytes with a visible polar body were selected in manipulation medium (TCM199 with 0.6 mM NaHCO3, 2.9 mM Hepes, 30 mM NaCl, 10 ng/mL gentamicin, and 3 mg/mL bovine serum albumin [BSA]; and osmolarity of 305) and then used for the experiments. Different oocyte activation methods were used for the experiments. As conventional activation methods, either electrical or chemical activation was used. For electrical activation, mature oocytes were activated in activation medium (0.3 M mannitol, 1.0 mM CaCl2, 0.1 mM MgCl2, and 0.5 mM Hepes) by two direct-current (DC) pulses (1-sec interval) at 1.2 kV/cm for 30 μsec (using BTX Electro Cell Manipulator, Harvard Apparatus, Holliston, Mass.). […] For TPEN mediated activation, mature oocytes were incubated in TL-Hepes media with various concentrations of TPEN for different durations. […] At the end of the culture, where applicable, the frequency of cleaved embryos and blastocysts, and total cell number in the blastocysts were recorded. Hoechst 33342 (1.2 mg/mL) was used to stain nuclei and the embryos were then evaluated by epi-fluorescence microscopy. […] The ability of TPEN as the main activating reagent was therefore tested. […] Then the oocytes were incubated with various concentrations (1 μM, 5 μM, 10 μM, 100 μM and 200 μM) and durations (10 minutes, 20 minutes, 30 minutes, 1 hour, 2 hours, and overnight) of TPEN. […] Optimal oocyte activation was observed when oocytes were activated by a smaller Ca^2+ signal followed by incubating in 200 μM TPEN for 30 min.",
  "note": "“And” between values parts separate entries of the source, which are not always exact repeats. Equal entries are not always repeated. Marks after values point to notes of the source that are not given here.",
  "data": [
    {"smiles": "c1ccc(CN(CCN(Cc2ccccn2)Cc2ccccn2)Cc2ccccn2)nc1", "note": "[TPEN, N,N,N′,N′-tetrakis(2-pyridylmethyl)ethane-1,2-diamine]", "values": [
      {"measurement": "cell numbers in day 7 blastocysts", "setting": "1 μM TPEN overnight", "result": "24.80±7.84"},
      {"measurement": "number of blastocysts at day 6 and 7", "setting": "1 μM TPEN overnight", "result": "increased number of blastocysts"},
      {"measurement": "cell numbers in day 7 blastocysts", "setting": "10 μM TPEN for 1 hour", "result": "30.17±5.97"},
      {"measurement": "cell numbers in day 7 blastocysts", "setting": "10 μM TPEN for 2 hours", "result": "29.63±10.47"},
      {"measurement": "cell numbers in day 7 blastocysts", "setting": "100 μM TPEN for 20 minutes", "result": "50.75±17.94"},
      {"measurement": "Day 6 Blastocysts (%)", "setting": "then TPEN 10 μM, 30 min", "result": "0% and 0^b %"},
      {"measurement": "Day 7 Blastocysts (%)", "setting": "then TPEN 10 μM, 30 min", "result": "5^b %"},
      {"measurement": "Day 6 Blastocysts (%)", "setting": "then TPEN 10 μM, 1 hour", "result": "15^a %"},
      {"measurement": "Day 7 Blastocysts (%)", "setting": "then TPEN 10 μM, 1 hour", "result": "22.5^a %"},
      {"measurement": "Day 6 Blastocysts (%)", "setting": "then TPEN 10 μM, 2 hours", "result": "15^a %"},
      {"measurement": "Day 7 Blastocysts (%)", "setting": "then TPEN 10 μM, 2 hours", "result": "25^a %"},
      {"measurement": "Day 6 Blastocysts (%)", "setting": "then TPEN 100 μM, 10 min", "result": "15^a %"},
      {"measurement": "Day 7 Blastocysts (%)", "setting": "then TPEN 100 μM, 10 min", "result": "15^a %"},
      {"measurement": "Day 6 Blastocysts (%)", "setting": "then TPEN 100 μM, 20 min", "result": "25^a %"},
      {"measurement": "Day 7 Blastocysts (%)", "setting": "then TPEN 100 μM, 20 min", "result": "30^a %"},
      {"measurement": "Day 6 Blastocysts (%)", "setting": "then TPEN 200 μM, 30 min", "result": "37.04^c %"},
      {"measurement": "Day 7 Blastocysts (%)", "setting": "then TPEN 200 μM, 30 min", "result": "41.98^c %"},
      {"measurement": "Day 6 Blastocysts (%)", "setting": "then TPEN 200 μM, 1 hour", "result": "18.75^a %"},
      {"measurement": "Day 7 Blastocysts (%)", "setting": "then TPEN 200 μM, 1 hour", "result": "27.5^a %"}
    ]}
  ]
}
